Results on 2 compounds are retold here after ChEMBL document CHEMBL3632570, “Structure-Guided Design of Novel l-Cysteine Derivatives as Potent KSP Inhibitors” (ACS Med Chem Lett, 2015).

Active and inactive are the calls of the source. The calls are words filed in the database; no cut-off is given here.

The target of data set [1] is T1, Kinesin-like protein KIF15 (Homo sapiens) (UniProt Q9NS87).
T1 sequence (whole entry): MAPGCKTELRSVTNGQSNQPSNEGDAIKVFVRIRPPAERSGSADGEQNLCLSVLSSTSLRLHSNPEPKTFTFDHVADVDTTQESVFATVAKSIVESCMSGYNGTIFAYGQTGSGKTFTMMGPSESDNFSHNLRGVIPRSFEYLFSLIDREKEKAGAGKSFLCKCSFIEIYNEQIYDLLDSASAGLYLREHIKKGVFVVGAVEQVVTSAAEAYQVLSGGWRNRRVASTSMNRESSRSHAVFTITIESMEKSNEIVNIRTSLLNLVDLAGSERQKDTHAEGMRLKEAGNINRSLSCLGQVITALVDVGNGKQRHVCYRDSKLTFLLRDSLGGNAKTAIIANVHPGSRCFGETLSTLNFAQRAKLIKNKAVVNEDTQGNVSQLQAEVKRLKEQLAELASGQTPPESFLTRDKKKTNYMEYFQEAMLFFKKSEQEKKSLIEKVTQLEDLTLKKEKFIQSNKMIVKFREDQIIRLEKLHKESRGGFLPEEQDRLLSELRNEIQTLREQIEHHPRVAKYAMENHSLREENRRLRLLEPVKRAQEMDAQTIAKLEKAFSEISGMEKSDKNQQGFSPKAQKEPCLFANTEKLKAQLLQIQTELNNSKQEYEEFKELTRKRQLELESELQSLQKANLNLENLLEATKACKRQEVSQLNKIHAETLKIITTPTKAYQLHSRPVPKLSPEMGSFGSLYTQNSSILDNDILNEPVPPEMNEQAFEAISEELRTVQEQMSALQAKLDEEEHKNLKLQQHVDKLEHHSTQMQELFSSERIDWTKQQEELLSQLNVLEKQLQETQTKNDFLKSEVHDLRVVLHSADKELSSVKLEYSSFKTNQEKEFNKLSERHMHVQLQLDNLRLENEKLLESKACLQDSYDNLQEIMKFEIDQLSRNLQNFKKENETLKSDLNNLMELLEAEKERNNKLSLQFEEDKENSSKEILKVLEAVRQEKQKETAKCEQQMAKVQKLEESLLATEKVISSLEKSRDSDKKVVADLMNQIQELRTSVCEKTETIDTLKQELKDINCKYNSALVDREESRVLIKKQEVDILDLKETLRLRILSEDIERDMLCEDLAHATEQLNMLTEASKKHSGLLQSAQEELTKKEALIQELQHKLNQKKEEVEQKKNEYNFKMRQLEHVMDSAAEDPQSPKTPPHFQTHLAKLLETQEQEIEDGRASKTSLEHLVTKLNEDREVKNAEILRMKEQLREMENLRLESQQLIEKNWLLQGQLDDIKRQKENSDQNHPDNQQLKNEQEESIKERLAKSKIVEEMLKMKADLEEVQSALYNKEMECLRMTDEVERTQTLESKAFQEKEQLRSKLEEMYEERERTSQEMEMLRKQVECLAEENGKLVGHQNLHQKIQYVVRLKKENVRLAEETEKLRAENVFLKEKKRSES
In words: Inhibition of microtubule-stimulated KIF15 motor domain (1 to 372) (unknown origin) ATPase activity at 6.3 uM.

Data set [2] concerns HCT-116. The data set is described as follows: Growth inhibition of human HCT116 cells after 72 hrs by MTS assay. Type of data set: functional, cell-based. Conditions: HCT-116, 72 h. In general terms: Formazan colour is commonly taken as a measure of viable cells.
In data set [3] the test system is HCT-116. In words: Antitumor activity against human HCT116 cells xenografted in athymic nude BALB/cAJcL mouse assessed as inhibition of tumor growth at 25 mg/kg, iv administered on days 1,3,5,8,10 and 12 measured on day 15. Type of data set: functional. In general terms: A xenograft is tissue or cells of one species grown in another, often human tumour cells in immunodeficient mice.

Data set [4] relates to Mus musculus. The data set is described as follows: Toxicity in athymic nude BALB/cAJcL mouse xenografted with HCT116 cells assessed as body weight loss at 25 mg/kg, iv administered on days 1,3,5,8,10 and 12 relative to vehicle-treated control. It counts as organism-based, HCT-116. Conditions: in vivo.
Data set [5] has as its target T2, Kinesin-like protein KIF22 (Homo sapiens) (UniProt Q14807).
T2 sequence (whole entry): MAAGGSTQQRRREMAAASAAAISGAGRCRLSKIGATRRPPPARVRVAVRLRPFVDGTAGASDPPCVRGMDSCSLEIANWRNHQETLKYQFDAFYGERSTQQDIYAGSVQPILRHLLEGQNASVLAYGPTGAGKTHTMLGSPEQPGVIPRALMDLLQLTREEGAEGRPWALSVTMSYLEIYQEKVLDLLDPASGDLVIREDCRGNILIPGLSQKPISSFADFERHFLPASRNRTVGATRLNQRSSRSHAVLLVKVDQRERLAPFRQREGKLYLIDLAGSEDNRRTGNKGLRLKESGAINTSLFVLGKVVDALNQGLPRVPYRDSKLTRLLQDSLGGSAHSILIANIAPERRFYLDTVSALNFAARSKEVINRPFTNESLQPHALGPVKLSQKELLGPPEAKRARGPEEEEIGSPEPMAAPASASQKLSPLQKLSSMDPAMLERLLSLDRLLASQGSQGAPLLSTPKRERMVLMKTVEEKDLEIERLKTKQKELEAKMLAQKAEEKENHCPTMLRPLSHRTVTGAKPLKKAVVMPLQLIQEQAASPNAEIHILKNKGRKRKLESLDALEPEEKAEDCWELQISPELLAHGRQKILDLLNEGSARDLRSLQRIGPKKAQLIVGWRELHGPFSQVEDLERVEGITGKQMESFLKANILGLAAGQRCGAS
In words: Inhibition of microtubule-stimulated Kid motor domain (1 to 336) (unknown origin) ATPase activity at 6.3 uM.

In general, IC50 refers to the concentration at which inhibition is half-maximal. A word on the T/C: it is the ratio of treated to control. Consider `COc1ccc(C2(SC[C@H](N)C(=O)O)c3ccccc3CCc3ccccc32)cc1`, for which the inhibition result in data set [1] and in data set [5] was “inactive” in each case. In data set [2], this compound had an IC50 of 28 nM. The T/C in data set [3] was determined as 26%. Further, the Activity result in data set [4] was “Toxic”.
Consider `N[C@@H](CSC1(c2ccc(C(F)(F)F)cc2)c2ccccc2CCc2ccccc21)C(=O)O`, for which the inhibition result in data set [1] and in data set [5] was “inactive” each time. In addition, in data set [2], half-maximal inhibition (IC50) required 11 nM. In data set [3], the T/C came out at 21%. The Activity entry in data set [4] is “Toxic”.
